Source: paper PMC11143257, “Atomistic mechanism of coupling between cytosolic sensor domain and selectivity filter in TREK K2P channels” (Nature Communications, 2024)
Substitutions are numbered along the chain they refer to. Structures can show the parent of a compound that is named as a salt.

Key:
[1] = test system: TREK-1 and TREK-2 mutants at C189, G208, L211, G212, T280, W326 and R237; experiment: NFx sensitivity in mutagenic perturbation analysis; assay type: cell-based; details: mutation at C189, G208, L211, G212, T280, W326 and R237; peer review file
Procedure: Further, we also tested the direct application of 1.0 µM of the PKC inhibitor BIM I to HEK293 cells (in whole-cell configuration) expressing hTREK-1.
Indeed, we performed a systematic unbiased mutagenic perturbation analysis of TREK-1 and TREK-2 K2P channels to identify residues that are critical for the stability of the down and up state, respectively. This analysis included more than 80 positions in TM2, TM3 and TM4 where
sensitivity and is complemented with extensive equilibrium and non-equilibrium MD simulations of all critical mutations.

[2] = test system: WT TREK-1; experiment: MTS probe modification, inside-out patch-clamp; assay type: cell-based, human; details: 100 µM decyl-MTS for at least 30 s, excised patches, symmetric K+, pH 7.4, +40 mV
Procedure: (§1) First, we measured WT TREK-1, WT TRAAK and TREK-2^* channels without modifiable cysteine residues as references. […] Note, that patch integrity and channel regulation were tested with either 1 mM tetra-pentyl-ammonium (TPenA) and a short pHi activation step. Next, we conducted systematic cysteine scanning mutagenesis of the entire pCt and examined the effect of charged and aliphatic MTS probes.
Xenopus laevis oocytes were surgically removed from anesthetized adult females, treated with type II collagenase (Sigma-Aldrich/Merck, Germany) and manually defolliculated. […] Currents were recorded with an EPC10 amplifier (HEKA electronics, Germany) and sampled at 10 kHz or higher and filtered with 3 kHz (-3 dB) or higher as appropriate for the sampling rate. […]
(§2) The fold current increase (fold activation) of a ligand (decyl-MTS) was calculated from the following equation:1 FoldactivationFA=Iactivated/Ibasal with Iactivated represents the stable current level in the presence of 100 µM decyl-MTS and Ibasal the measured current before application of the MTS probe.

[3] = biological target: T1, TREK-1 T318C (Homo sapiens, UniProt O95069, T318C); experiment: MTS probe modification, inside-out patch-clamp; assay type: cell-based; details: 100 µM decyl-MTS
T1 construct: expressed in transfected cells; host or cells: Xenopus laevis oocytes (cRNA injection), excised inside-out patches
T1 sequence (O95069 1-426 T318C): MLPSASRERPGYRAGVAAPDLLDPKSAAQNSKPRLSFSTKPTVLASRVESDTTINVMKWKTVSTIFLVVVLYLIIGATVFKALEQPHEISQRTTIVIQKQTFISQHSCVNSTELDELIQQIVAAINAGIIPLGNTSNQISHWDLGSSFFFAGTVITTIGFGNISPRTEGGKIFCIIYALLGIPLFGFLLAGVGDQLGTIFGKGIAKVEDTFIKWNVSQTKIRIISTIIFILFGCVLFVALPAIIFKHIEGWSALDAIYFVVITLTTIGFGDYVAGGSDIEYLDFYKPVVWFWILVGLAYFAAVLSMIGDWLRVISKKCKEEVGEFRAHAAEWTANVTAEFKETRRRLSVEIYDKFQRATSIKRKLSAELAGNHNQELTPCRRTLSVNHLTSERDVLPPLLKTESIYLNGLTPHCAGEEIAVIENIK
Procedure: as §1
(§3) Xenopus laevis oocytes were surgically removed from anesthetized adult females, treated with type II collagenase (Sigma-Aldrich/Merck, Germany) and manually defolliculated. A solution containing the K^+ channel-specific cRNA at a desired concentration was injected into Dumont stage V - VI oocytes and subsequently incubated at 17 °C in a solution containing (mM): 54 NaCl, […], 2.4 NaHCO3, 0.82 MgSO4 x 7 H2O, 0.41 CaCl2, 0.33 Ca(NO3)2 x 4 H2O and 7.5 TRIS (pH 7.4 adjusted with NaOH/HCl) for 1 - 7 days before use. Patch-clamp recordings in an inside-out configuration under voltage-clamp conditions were performed at room temperature (22 - 24 °C). Patch pipettes were made from thick-walled borosilicate glass GB 200TF-8P (Science Products, Germany), had resistances of 0.2 - 0.5 MΩ (tip diameter of 10 - 25 µm) and filled with a pipette solution (in mM): 120 KCl, 10 HEPES and 3.6 CaCl2 (pH 7.4 adjusted with KOH/HCl). Intracellular bath solutions and compounds were applied to the cytoplasmic side of excised patches for the various K^+ channels via a gravity flow multi-barrel pipette system. The intracellular solution had the following composition (in mM): 120 KCl, 10 HEPES, 2 EGTA, and 1 Pyrophosphate (pH adjusted with KOH/HCl). Currents were recorded with an EPC10 amplifier (HEKA electronics, Germany) and sampled at 10 kHz or higher and filtered with 3 kHz (-3 dB) or higher as appropriate for the sampling rate.
(§4) Tetra-pentyl-ammonium chloride (TPenA) was purchased from Merck (Sigma-Aldrich), prepared as 100 mM stocks in intracellular recording solution, stored at −20 °C and diluted to a final concentration in intracellular recording solution before measurements. Decyl-MethaneThioSulfonate (Decyl-MTS), (2-(trimethylammonium)ethyl)MethaneThioSulfonate bromide (MTS-ET^+) and Sodium (2-sulfonatoethyl)MethaneThioSulfonate (MTS-ES^-) were purchased from Toronto Research Chemicals. MTS-ET^+ was directly dissolved to the desired concentration of 1 mM in the intracellular recording solution before each experiment. MTS-ET^+ was used immediately after dilution for maximally 5 min. Decyl-MTS and […] were prepared as 10 - 100 mM stocks in DMSO and diluted to the desired concentration before the measurements.
as §2

[4] = biological target: T2, TREK-1 V322C (Homo sapiens, UniProt O95069, V322C); experiment: MTS probe modification, inside-out patch-clamp; assay type: cell-based; details: 100 µM decyl-MTS
T2 construct: expressed in transfected cells; host or cells: Xenopus laevis oocytes (cRNA injection), excised inside-out patches
T2 sequence (O95069 1-426 V322C): T1 sequence (O95069 1-426 T318C) with C318T, V322C
Procedure: as §1, §3, §4, §2

full current increase (fold activation) ([3]; mean ± s.e.m.) | effect on current ([3]; symmetrical K+, +40 mV, pH 7.4) | full current increase (fold activation) ([4]; mean ± s.e.m.) | effect on current ([4]; symmetrical K+, +40 mV, pH 7.4) | SMILES | NFx sensitivity [1] | effect on current amplitude [2]
 |  |  |  | NCCC(Oc1ccc(C(F)(F)F)cc1)c1ccccc1 (stereo not drawn) [NFx, Norfluoxetine hydrochloride] | markedly reduced | 
33 ± 11 fold | strong and irreversible activation | 42 ± 17 fold | strong and irreversible activation | CCCCCCCCCCSS(C)(=O)=O [decyl-MTS, Decyl-MethaneThioSulfonate] |  | no change
